From BindingDB's records for doi:10.1016/j.bmcl.2005.07.040 (Universit&#233, 2005)

Molecular target: Sigma non-opioid intracellular receptor 1 (Cavia porcellus)
Assay: Inhibitory concentration against opioid receptor sigma 1 of guinea pig cerebral cortex using [3H](+)-pentazocine upon incubation for 150 minutes at 22 degree C

Structure (SMILES) | IC50
O=c1n(CCN2CCCCC2)c(O)c2n1Cc1ccccc1C2 | 6.6 nM
c1ccc2c(c1)C[C@H]1CN(CCN3CCCCC3)CN1C2 [(S)-2-(2-Piperidin-1-yl-ethyl)-1,2,3,5,10,10a-hexahydro-imidazo[1,5-b]isoquinoline] | 77 nM
O=C1N(CCN2CCCCC2)C[C@@H]2Cc3ccccc3CN12 [(S)-2-(2-Piperidin-1-yl-ethyl)-1,5,10,10a-tetrahydro-2H-imidazo[1,5-b]isoquinolin-3-one] | 54 nM

More lines, now with the values ahead:

IC50 | Structure (SMILES)
0.9 nM | Oc1c2n(c(=S)n1CCN1CCCCC1)Cc1ccccc1C2 [(S)-2-(2-Piperidin-1-yl-ethyl)-3-thioxo-2,3,10,10a-tetrahydro-5H-imidazo[1,5-b]isoquinolin-1-one]
> 1000 nM | O=c1n(CCN2CCCCC2)c(O)c2n1CCCC2 [(S)-2-(2-Piperidin-1-yl-ethyl)-tetrahydro-imidazo[1,5-a]pyridine-1,3-dione]
